From ChEMBL document CHEMBL3596187, “Design and synthesis of membrane-targeting antibiotics: from peptides- to aminosugar-based antimicrobial cationic amphiphiles” (2014) come the findings set out here.

Common to all, as to assay type: functional
For one assay, the system named is Streptococcus mutans. The experiment in a line: Antimicrobial activity against Streptococcus mutans by agar dilution method. (In general: In agar dilution the substance is mixed into plates at graded concentrations.)
The test system of another assay is Porphyromonas gingivalis. The experiment in a line: Antimicrobial activity against protease-positive Porphyromonas gingivalis by agar dilution method.
Assay [1] relates to Porphyromonas cangingivalis. The experiment in a line: Antimicrobial activity against protease-positive Porphyromonas cangingivalis by agar dilution method.
The subject of assay [2] is Porphyromonas circumdentaria. The experiment in a line: Antimicrobial activity against protease-positive Porphyromonas circumdentaria by agar dilution method.
In the next assay the test system is Staphylococcus. Nature of the assay: Antimicrobial activity against Staphylococci.
The test system of another assay is Acinetobacter lwoffii. Nature of the assay: Antimicrobial activity against Acinetobacter lwoffii after 18 to 24 hrs by geometric microdilution method. (In general: Dilution methods test growth across graded concentrations, often in twofold steps.)
A further assay has as its system Escherichia coli. The experiment in a line: Antimicrobial activity against Escherichia coli after 18 to 24 hrs by geometric microdilution method.
A further assay concerns Pseudomonas aeruginosa. Nature of the assay: Antimicrobial activity against Pseudomonas aeruginosa after 18 to 24 hrs by geometric microdilution method.
In the next assay the test system is Klebsiella pneumoniae. The experiment in a line: Antimicrobial activity against Klebsiella pneumoniae after 18 to 24 hrs by geometric microdilution method.

Values after ≈ are worked out from the molar mass of the structure shown.

Consider `CCCCCCCCNCCC[C@@H](C)[C@H]1CC[C@H]2[C@@H]3[C@H](OCCCN)C[C@@H]4C[C@H](OCCCN)CC[C@]4(C)[C@H]3C[C@H](OCCCN)[C@]12C`, for which the minimum inhibitory concentration (MIC) with Streptococcus mutans turned out to be 1 µg/mL (≈ 1.48 µM); in the assay on Porphyromonas gingivalis, 2 µg/mL (≈ 2.95 µM); in assay [1] it was 2 µg/mL (≈ 2.95 µM); in [2], 1 µg/mL (≈ 1.48 µM).
For `CCN(CC)CCCCOc1cc2oc3cc(OCCCCN(CC)CC)c(OC)c(CC=C(C)C)c3c(=O)c2c(O)c1CC=C(C)C`, 0.095 µg/mL (≈ 0.143 µM) was the least that counted as inhibitory against Staphylococcus (MIC).
`NC[C@H]1O[C@H](O[C@H]2[C@H](O)[C@@H](OCc3ccc4ccccc4c3)[C@H](N)C[C@@H]2N)[C@H](N)[C@@H](OCc2ccc3ccccc3c2)[C@@H]1OCc1ccc2ccccc2c1`: the MIC in the assay on Acinetobacter lwoffii, in the assay on Escherichia coli, with Pseudomonas aeruginosa and against Klebsiella pneumoniae was 2 µg/mL (≈ 2.69 µM) in each case.

The MIC is the least concentration at which growth counts as inhibited. Lower therefore signals inhibition by little substance.
